Data as given in patent US20080280920A1, “Plasminogen Activator Inhibitor-1 Inhibitors” (priority 2005, published 2008).

Assays:
wildtype human PAI-1 = target: T1, wildtype human PAI-1 (Homo sapiens, UniProt P05121); assay: PAI-1/uPA assay (residual uPA activity, fluorescent substrate SpectroFluor); format: biochemical; conditions: within the concentration range tested
T1 construct: purchased Molecular Innovations Lot# HWT-804
Procedure: Principle: The assay is based on using a fluorescent substrate (SpectroFluor) to measure residual uPA following inhibition of uPA by PAI-1. PAI-1 used in the assay is pre-treated in the presence of increasing concentrations of the lead compounds to screen for any inhibitory effects on PAI-1. Method: This assay was performed in 96 well microtiter plates. The concentrations of uPA (8 nM) and PAI-1 (6 nM) used in this assay were carefully optimized when using the fluorescent substrate, SpectroFluor™. Stock solutions (10 mM) of all lead compounds were prepared fresh in DMSO. […] 20 μl of 6 nM wildtype human PAI-1 (Molecular Innovations, Lot# HWT-804) was incubated for 15-20 minutes at room temperature in 96 well microtiter plates either with buffer, (50 mM HEPES, 150 mM NaCl, 0.05% Tween-20, 1% BSA, pH 6.6) or various concentrations (10 nM to 100 μM final concentration) of lead compounds in a total volume of 80 μl. A 20 μl aliquot of 8 nM uPA (HMW) solution in 0.05M Tris Buffered™ saline (TBS), pH 8.4 was added to each well and the mixture incubated for an additional 5 minutes at RT. The proteolytic reaction was initiated by addition of 50 μl of 0.1 mM SpectroFluor (Spectrozyme UK Fluorogenic substrate) to each well. The kinetics of the free chromophore, 7-amino-4-methylcoumarin (AMC) released in the course of peptide cleavage by the protease, uPA, was monitored for 30 minutes at 37° C. on a spectrofluorometric microplate reader with an excitation wavelength of 360 nm and emission wavelength of 440 nm. Kinetic data regarding the rate of substrate cleavage by uPA was acquired with Softmax PrO™ software. The difference between the residual uPA activity in the presence or absence of untreated PAI-1, at the molar ratio used, was considered as the “total” PAI-1 activity (100%). The inhibition of uPA by PAI-1 treated with lead compounds was expressed as a percentage of the initial activity of untreated PAI-1. Controls were performed during each experiment to ensure the nearly complete inhibition of uPA by untreated PAI-1 and also to ensure the absence of any direct effect of the lead compounds on uPA alone or on SpectroFluor.

[1] = tested on: 60 different human cancer cell lines; assay: NCI in vitro anticancer screen (whole panel); format: cell-based
SR = assay: NCI anticancer screen, SR; format: cell-based, human; conditions: Leukemia, 48 h
EKVX = assay: NCI anticancer screen, EKVX; format: cell-based, human; conditions: Non-Small Cell Lung, 48 h
HOP-92 = assay: NCI anticancer screen, HOP-92; format: cell-based, human; conditions: HOP-92, Non-Small Cell Lung, 48 h
NCI-H23 = assay: NCI anticancer screen, NCI-H23; format: cell-based, human; conditions: NCI-H23, Non-Small Cell Lung, 48 h
NCI-H322M = assay: NCI anticancer screen, NCI-H322M; format: cell-based, human; conditions: Non-Small Cell Lung, 48 h
NCI-H460 = assay: NCI anticancer screen, NCI-H460; format: cell-based, human; conditions: NCI-H460, Non-Small Cell Lung, 48 h
KM12 = assay: NCI anticancer screen, KM12; format: cell-based, human; conditions: KM12, Colon, 48 h
SW-620 = assay: NCI anticancer screen, SW-620; format: cell-based, human; conditions: SW-620, Colon, 48 h
SF-295 = assay: NCI anticancer screen, SF-295; format: cell-based, human; conditions: SF-295, CNS, 48 h
SNB-19 = assay: NCI anticancer screen, SNB-19; format: cell-based, human; conditions: SNB-19, CNS, 48 h
LOX IMVI = assay: NCI anticancer screen, LOX IMVI; format: cell-based, human; conditions: Melanoma, 48 h
UACC-257 = assay: NCI anticancer screen, UACC-257; format: cell-based, human; conditions: UACC-257, Melanoma, 48 h
OVCAR-3 = assay: NCI anticancer screen, OVCAR-3; format: cell-based, human; conditions: OVCAR-3, Ovarian, 48 h
ACHN = assay: NCI anticancer screen, ACHN; format: cell-based, human; conditions: Renal, 48 h
TK-10 = assay: NCI anticancer screen, TK-10; format: cell-based, human; conditions: TK-10, Renal, 48 h
DU-145 = assay: NCI anticancer screen, DU-145; format: cell-based, human; conditions: DU-145, Prostate, 48 h
MDA-MB-231/ATCC = assay: NCI anticancer screen, MDA-MB-231/ATCC; format: cell-based, human; conditions: Breast, 48 h
[2] = Homo sapiens, read-out: LC50 (the source's name)

T1 sequence (P05121 24-402): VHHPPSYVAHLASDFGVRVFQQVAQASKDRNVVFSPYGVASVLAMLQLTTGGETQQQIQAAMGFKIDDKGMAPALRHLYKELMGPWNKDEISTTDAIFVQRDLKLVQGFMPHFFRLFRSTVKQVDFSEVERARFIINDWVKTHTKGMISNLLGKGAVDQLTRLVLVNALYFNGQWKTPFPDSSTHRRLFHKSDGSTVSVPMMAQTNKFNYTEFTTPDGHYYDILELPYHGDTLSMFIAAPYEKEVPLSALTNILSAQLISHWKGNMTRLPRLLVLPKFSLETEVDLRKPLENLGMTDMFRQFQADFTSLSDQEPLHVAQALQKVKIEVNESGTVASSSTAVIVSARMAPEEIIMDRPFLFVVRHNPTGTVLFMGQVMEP

## COc1cc(CNCC2CCN(C(=O)OC(C)(C)C)CC2)cc(CN2CCN(c3ccccn3)CC2)c1O [Compound Q012132, 2-Methoxy-4-({[(N-t-butyloxycarbonylpiperidin-4-yl)methyl]amino}methyl)-6-[(4-pyridin-2-ylpiperazin-1-yl)methyl]phenol]
Wildtype human PAI-1
  Conc. of compound required for PAI-1 inhibition (result in words): No inhibition
[1]; NCI screen, 48 h
  growth and proliferation of human primary cancer cell-lines (in words): inhibited growth and proliferation
[1]; low micromolar concentrations, leukemia, melanoma, colon and central nervous system cell-lines
  cytostatic / cytotoxic effects on human cancer cell-lines (in words): cytostatic and cytotoxic effects
SR; Homo sapiens
  GI50: 11 µM
SR; [2]
  CC50: 84.4 µM
SR
  TGI: 30.5 µM
EKVX; Homo sapiens
  GI50: 91.2 µM
EKVX; [2]
  CC50: > 100 µM
EKVX
  TGI: >100 µM
HOP-92
  TGI: 26.6 µM
HOP-92; Homo sapiens
  GI50: 10.7 µM
  LC50 (concentration killing 50% of starting cells): 66.3 µM
NCI-H23; Homo sapiens
  GI50: 29.6 µM
NCI-H23; [2]
  CC50: > 100 µM
NCI-H23
  TGI: >100 µM
NCI-H322M; Homo sapiens
  GI50: 37.8 µM
NCI-H322M; [2]
  CC50: > 100 µM
NCI-H322M
  TGI: >100 µM
NCI-H460; Homo sapiens
  GI50: 21.3 µM
NCI-H460; [2]
  CC50: 81.7 µM
NCI-H460
  TGI: 41.7 µM
KM12; Homo sapiens
  GI50: 31.6 µM
KM12; [2]
  CC50: > 100 µM
KM12
  TGI: >100 µM
SW-620; Homo sapiens
  GI50: 16.1 µM
SW-620; [2]
  CC50: 59.1 µM
SW-620
  TGI: 30.8 µM
SF-295; Homo sapiens
  GI50: 19.3 µM
SF-295; [2]
  CC50: 89 µM
SF-295
  TGI: 41.4 µM
SNB-19; Homo sapiens
  GI50: 41.8 µM
SNB-19; [2]
  CC50: > 100 µM
SNB-19
  TGI: >100 µM
LOX IMVI; Homo sapiens
  GI50: 14.1 µM
  LC50 (concentration giving 50% net cell kill): 55.1 µM
LOX IMVI
  TGI: 27.9 µM
UACC-257; Homo sapiens
  GI50: 18.4 µM
UACC-257; [2]
  CC50: > 100 µM
UACC-257
  TGI: 45.7 µM
OVCAR-3; Homo sapiens
  GI50: 33.1 µM
OVCAR-3; [2]
  CC50: > 100 µM
OVCAR-3
  TGI: >100 µM
ACHN; Homo sapiens
  GI50: 21 µM
ACHN; [2]
  CC50: > 100 µM
ACHN
  TGI: 48.5 µM
TK-10; Homo sapiens
  GI50: 19.5 µM
TK-10; [2]
  CC50: 86.5 µM
TK-10
  TGI: 41.0 µM
DU-145
  TGI: >100 µM
DU-145; Homo sapiens
  GI50: 38.8 µM
DU-145; [2]
  CC50: > 100 µM
MDA-MB-231/ATCC
  TGI: 41.0 µM
MDA-MB-231/ATCC; Homo sapiens
  GI50: 17.8 µM
MDA-MB-231/ATCC; [2]
  CC50: 94.3 µM
